Assay results taken from article PMC10909772 (Saudi Pharmaceutical Journal : SPJ, 2024).
Read-outs that look alike come from different tables or passages of the source. Blank lines part the entries; values can stand above or below the compound they belong to.

What was measured:
[1] = molecular target: T1, xanthine oxidase (Bos taurus, UniProt P80457); assay: Kinetics of xanthine oxidase inhibition; type: biochemical; conditions: Lineweaver-Burk double reciprocal plots, xanthine as substrate
[2] = molecular target: T1, xanthine oxidase; assay: Xanthine oxidase inhibitory assay; type: biochemical
[3] = molecular target: T1, xanthine oxidase; conditions: cited from earlier work; for inhibition of the xanthine oxidase enzyme (in words): ref Mostafa et al., 2007

T1 sequence (P80457 whole entry): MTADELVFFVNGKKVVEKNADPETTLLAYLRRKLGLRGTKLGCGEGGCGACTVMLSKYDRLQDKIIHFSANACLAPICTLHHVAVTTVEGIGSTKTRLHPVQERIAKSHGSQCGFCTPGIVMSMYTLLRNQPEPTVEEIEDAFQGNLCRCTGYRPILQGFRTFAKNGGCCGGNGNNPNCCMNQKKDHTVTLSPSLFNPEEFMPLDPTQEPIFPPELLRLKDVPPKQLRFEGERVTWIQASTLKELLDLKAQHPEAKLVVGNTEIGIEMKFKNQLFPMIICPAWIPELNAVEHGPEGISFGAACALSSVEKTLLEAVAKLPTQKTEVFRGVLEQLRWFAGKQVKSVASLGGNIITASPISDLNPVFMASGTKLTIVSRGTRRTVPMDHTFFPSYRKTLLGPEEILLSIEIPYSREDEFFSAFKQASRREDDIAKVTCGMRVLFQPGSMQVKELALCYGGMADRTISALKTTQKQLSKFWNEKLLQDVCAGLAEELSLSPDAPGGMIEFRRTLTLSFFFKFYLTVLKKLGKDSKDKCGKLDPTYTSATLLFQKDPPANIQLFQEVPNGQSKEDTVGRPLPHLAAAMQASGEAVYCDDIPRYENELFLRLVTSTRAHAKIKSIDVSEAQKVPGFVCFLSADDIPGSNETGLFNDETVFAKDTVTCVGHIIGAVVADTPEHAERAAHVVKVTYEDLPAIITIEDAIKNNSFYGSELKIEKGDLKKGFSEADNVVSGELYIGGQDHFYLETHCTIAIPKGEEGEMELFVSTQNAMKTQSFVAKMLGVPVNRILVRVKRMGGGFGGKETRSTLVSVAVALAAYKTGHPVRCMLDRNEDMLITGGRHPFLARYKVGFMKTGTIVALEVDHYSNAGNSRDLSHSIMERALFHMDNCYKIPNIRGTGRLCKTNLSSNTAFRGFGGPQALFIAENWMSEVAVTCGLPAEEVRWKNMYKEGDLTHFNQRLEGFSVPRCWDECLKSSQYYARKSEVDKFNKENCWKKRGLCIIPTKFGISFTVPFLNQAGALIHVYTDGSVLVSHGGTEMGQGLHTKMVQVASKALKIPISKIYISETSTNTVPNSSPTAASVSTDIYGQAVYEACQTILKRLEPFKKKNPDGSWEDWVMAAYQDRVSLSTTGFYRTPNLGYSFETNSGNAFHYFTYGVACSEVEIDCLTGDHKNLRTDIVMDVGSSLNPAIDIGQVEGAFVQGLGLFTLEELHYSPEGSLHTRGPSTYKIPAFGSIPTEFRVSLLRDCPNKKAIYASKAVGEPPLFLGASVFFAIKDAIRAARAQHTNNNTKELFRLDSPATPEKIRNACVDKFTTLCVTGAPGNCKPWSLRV

type of inhibition [1]: competitive
SMILES: Oc1ncnc2[nH]ncc12 [Allopurinol]

IC50 [2]: 26.3 ± 3.36 µM | type of inhibition [1]: competitive
SMILES: COc1ccc(/C=C/C(=O)O)cc1 [Compound 3, trans-4-methoxycinnamic acid]

IC50 [2]: 23.3 ± 1.88 µM | type of inhibition [1]: competitive
SMILES: O=C(O)/C=C/c1ccc(O)cc1 [Compound 5, p-coumaric acid]

SMILES: COc1ccc(CCO[C@@H]2O[C@H](CO[C@@H]3OC[C@H](O)[C@H](O)[C@H]3O)[C@@H](OC(=O)/C=C/c3ccc(O)c(OC)c3)[C@H](O[C@@H]3O[C@@H](C)[C@H](O)[C@@H](O)[C@H]3O)[C@H]2O)cc1O [angoroside C]
inhibition of the xanthine oxidase enzyme (in words) [3]: moderate inhibitors

SMILES: O=c1cc(-c2ccc(O)cc2)oc2cc(O)cc(O)c12 [apigenin]
type of inhibition ([3]; ref Lin et al., 2002): competitive

SMILES: O=C(O)/C=C/c1ccc(O)c(O)c1 [caffeic acid]
IC50 ([3]; ref Nguyen et al., 2006): 85.4 µM | inhibition type ([3]; ref Nguyen et al., 2006): competitive

SMILES: O=c1c(-c2ccc(O)cc2)coc2cc(O)cc(O)c12 [genistein]
type of inhibition ([3]; ref Lin et al., 2002): competitive

SMILES: COc1ccc(CCO[C@@H]2O[C@H](CO)[C@@H](OC(=O)/C=C/c3ccc(O)c(OC)c3)[C@H](O[C@@H]3O[C@@H](C)[C@H](O)[C@@H](O)[C@H]3O[C@@H]3O[C@H](CO)[C@@H](O)[C@H](O)[C@H]3O)[C@H]2O)cc1O [incanoside D]
inhibition of the xanthine oxidase enzyme (in words) [3]: moderate inhibitors

SMILES: O=c1cc(-c2ccc(O)c(O)c2)oc2cc(O)cc(O)c12 [luteolin]
Ki ([3]; read-out: inhibition constant (Ki), ref Yan et al., 2013): 2.38 µM | IC50 ([3]; ref Yan et al., 2013): 4.79 µM | type of inhibition ([3]; ref Yan et al., 2013): competitive

SMILES: COC(=O)/C=C/c1ccc(O)c(O)c1 [methyl caffeate]
IC50 ([3]; ref Nguyen et al., 2006): 12.3 µM | inhibition type ([3]; ref Nguyen et al., 2006): competitive

SMILES: O=c1c(O)c(-c2cc(O)c(O)c(O)c2)oc2cc(O)cc(O)c12 [myricetin]
type of inhibition ([3]; ref Lin et al., 2002): competitive

SMILES: O=c1c(O)c(-c2ccc(O)c(O)c2)oc2cc(O)cc(O)c12 [quercetin]
type of inhibition ([3]; ref Lin et al., 2002): competitive
